# In patent US9095567B2, “Vaccine formulations” (priority 2010, dated 2015):
# Key:
# Format in all cases: cell-based
# [1] = system: E. coli; assay: Preservative effectiveness test, single challenge; settings: Prev(e)nar 13 formulation, 20 to 25° C.
# Description: (§1) To test for preservative effectiveness, aliquots of vaccine were inoculated with the following organisms:
# (§2) Thirty milliliters (ml) of each vaccine formulation with and without Thimerosal or 2-PE at indicated concentrations or saline containing Thimerosal at 0.02% were inoculated in triplicates with a suspension of each test organism to achieve an inoculum density of approximately 10^5 to 10^6 CFU/ml at time 0 (CFU=colony forming units). […] Samples were mixed to ensure even distribution of challenged organisms. Another 30 ml of vaccine in triplicate (with and without preservative) were used as a negative control and spiked with the culture media alone to evaluate the inherent contamination that might be present in the sample or media. Each of the three series of vaccines, and positive and negative controls, was then separately incubated at 20 to 25° C. Aliquots (1 ml) of the challenged samples and controls (or their appropriate serial ten fold dilutions) were enumerated by plate count in duplicates at time 0 and at intervals of 6 hours, 24 hours, 7 days, 14 days and 28 days post-inoculation.
# (§3) USP 29 NF 24 Supplement 2 (USP) requires that, after an inoculation of bacterial micro-organism(s), there is at least 1.0 log reduction from the initial calculated count (i.e., at time of inoculation) at 7 days, at least 3.0 log reduction at 14 days from the previous value measured and no increase at 28 days from the previous measured value. For yeast and fungi, the USP requirement is for there to be no increase from the time of inoculation to 7, 14 and 28 days.
# (§4) EP requirements are more stringent. EP 5th Edition 5.6 (5.1.3) requirements for parenteral and ophthalmic preparations has two components: Category A and Category B. Category A (EP-A) requires, for bacteria, at least 2.0 log reduction from the initial calculated count at 6 hours after inoculation, at least 3.0 log reduction at 24 hours from the previous measured value, and no recovery at 28 days. Category B (EP-B) requires, for bacteria, at least 1.0 log reduction at 24 hours from the initial calculated count, at least 3.0 log reduction at 7 days from the previous value measured and not more than 0.5 log increase at 28 days from the previous value measured (i.e., no increase). For yeast and fungi, Category A requires at least 2.0 log reduction at 7 days and no increase from the previous value measured at 28 days, and Category B requires at least 1.0 log reduction at 14 days and no increase from the previous value measured at 28 days.
# (§5) Plates containing <300 CFU for bacteria or <100 CFU for yeast or mold were used during enumeration. For single challenge studies, arithmetic average count of all surviving micro-organisms in triplicate and on duplicate plates (6 values per time point) plus their diluted samples were measured and normalized as CFU/ml. The results are expressed as mean log10 CFU/ml reduction (compared to time 0). In this case, the count of surviving micro-organisms is evaluated at time 0 as the baseline and compared to incubation time of 6 hours, 24 hours, 7 days, 14 days and 28 days.
# [2] = system: Aspergillus niger (ATCC #16404); assay: Preservative effectiveness test, single challenge
# Description: as §1, §2, §3, §4, §5
# [3] = system: Pseudomonas aeruginosa (ATCC #9027); assay: Preservative effectiveness test, single challenge; settings: Prev(e)nar 13 formulation, 20 to 25° C.
# Description: as §1, §2, §3, §4, §5
# [4] = system: Staphylococcus aureus, Pseudomonas aeruginosa, Candida albicans, Aspergillus niger; assay: Preservative effectiveness test, single challenge, all challenge organisms (pharmacopeial acceptance criteria); settings: for preservative effectiveness after storage: 2-PE at 3.5 to 5.0 mg/dose
# Description: For ascertaining preservative levels according to U.S. and European Pharmacopeias (USP and EP, respectively), the vaccine formation is inoculated once with approximately 10^5 to 10^6 CFU/ml at time 0 (CFU=colony forming units) of:
# USP 29 NF 24 Supplement 2 (USP) requires that, after an inoculation of bacterial micro-organism(s), there is at least 1.0 log reduction from the initial calculated count (i.e., at time of inoculation) at 7 days, at least 3.0 log reduction at 14 days from the previous value measured, and no increase at 28 days compared to the previous value measured. For yeast and fungi, the USP requirement is for there to be no increase from time of inoculation at 7, 14 and 28 days.
# EP requirements are more stringent. EP 5th Edition 5.6 (5.1.3) requirements for parenteral and ophthalmic preparations has two components: Category A and Category B. Category A (EP-A) requires, for bacteria, at least 2.0 log reduction from the initial calculated count at 6 hours after inoculation, at least 3.0 log reduction from the previous value measured at 24 hours and no recovery at 28 days. Category B (EP-B) requires, for bacteria, at least 1.0 log reduction from the initial calculated count at 24 hours, at least 3.0 log reduction at 7 days from the previous value measured and not more than 0.5 log increase from the previous value measured (i.e., no increase) at 28 days. For yeast and fungi, Category A requires at least 2.0 log reduction at 7 days from the initial calculated count, and no increase at 28 days from the previous measured value; and Category B requires at least 1.0 log reduction from the initial calculated count at 14 days and no increase at 28 days from the previous measured value.
# as §2, §3
# as §4, with “increase).” for “increase). For yeast and fungi, Category A requires at least 2.0 log reduction at 7 days and no increase from the previous value measured at 28 days, and Category B requires at least 1.0 log reduction at 14 days and no increase from the previous value measured at 28 days.”
# [5] = 5 mg/dose 2-PE in Prev(e)nar 13, single challenge
# [6] = Prev(e)nar 13 formulation, single challenge, 20 to 25° C.
# [7] = 2-PE at 2.5 mg/dose, single challenge
# [8] = Thimerosal at 0.01% in Prev(e)nar 13 vaccine formulation, single challenge
# [9] = Thimerosal at 0.02% (50 μg mercury per dose), single challenge
# [10] = Thimerosal at 0.04% (100 μg mercury per dose), single challenge
compound,measurement,setting,value
"OCCOc1ccccc1 [2-PE, 2-phenoxyethanol]","EP (EP-B) vaccine safety requirements, E. coli",[1],Fails
same,"USP vaccine safety requirements, E. coli",[1],Meets
same,effectiveness as a preservative against A. niger compared with Thimerosal,[2]; [5],less effective
same,rate of decline of A. niger contamination compared to Thimerosal,[2]; [5],slower
same,"EP (EP-B) vaccine safety requirements, A. niger",[2]; [6],Fails
same,"USP vaccine safety requirements, A. niger",[2]; [6],Meets
same,"EP (EP-B) vaccine safety requirements, P. aeruginosa",[3],Fails
same,"USP vaccine safety requirements, P. aeruginosa",[3],Meets
same,EP-A anti-microbial effectiveness acceptance criteria,[4],met
same,EP-B anti-microbial effectiveness acceptance criteria,[4],met
same,EP acceptance criteria A,[4]; [7],failed
same,EP acceptance criteria B,[4]; [7],failed
same,preservative acceptance criteria EP-B,"[4]; 2-PE at 3.5 mg/dose, single challenge",meet
same,preservative acceptance criteria EP-B,"[4]; 2-PE at 5 mg/dose, single challenge",meet
same,preservative effectiveness after storage,[4]; formulations stored at 2-8° C. for two and a half years,remained persistent
same,preservative effectiveness after storage,[4]; formulations stored at 37° C. for a month,remained persistent
same,EP acceptance criteria B,"[4]; 2-PE at concentrations of 3.5 to 5.5 mg/dose, single challenge",met
same,effectiveness as a preservative compared with Thimerosal,"[4]; Prev(e)nar 13 formulation, single challenge",more effective
C[CH2][Hg][S]c1ccccc1C(=O)[O-].[Na+] [Thimerosal],contamination levels of all four inoculated micro-organisms,"[4]; 0.01% Thimerosal in Prev(e)nar 13, single challenge, 20-25° C., 28 days",reduced
same,European acceptance criteria EP-A,[4]; [8],did not meet
same,European acceptance criteria EP-B,[4]; [8],did not meet
same,acceptance limits established by the Japanese Pharmacopoeia,[4]; [8],did pass
same,acceptance limits established by the U.S. Pharmacopoeia,[4]; [8],did pass
same,EP acceptance criteria A,[4]; [9],not
same,EP acceptance criteria B,[4]; [9],met
same,EP acceptance criteria A,[4]; [10],not
same,EP acceptance criteria B,[4]; [10],met
